We go through six compounds from patent publication US20100197581A1, “NATIVE GP41 ASSAY” (priority 2007, published 2010).

Where two headings read alike, the source gives them in different places.

In data set [1] the target is T1, gp41 (HR1 region) in native HIV-1 envelope spikes on HUTIIIB cells (Human immunodeficiency virus type 1 group M subtype B, UniProt P04578, V708A). The format is binding, HIV-1 IIIB.
Data set [2] addresses T1, gp41 (HR1 region) in native HIV-1 envelope spikes on HUTIIIB cells. The following applies: for activity in native gp41 assay (words, Table 4 results): reference compounds, flow cytometric- and HCS-based assay. As to the method:
A serial dilution of test compounds, dissolved in DMSO, were diluted in culture medium (RPMI1640 with Ultraglutamin and Hepes w/o phenol red with 10% bovine calf serum (HyClone) and 20 μg/l gentamycin) with a final DMSO concentration of 1% and added to 384 well Cell Carrier plates (Evotec Technologies). Hut-IIIB cells (15000 cells/well) were added to these test plates and incubated for 30 min at room temperature. […] Finally, a solution of DRAQ 5 in PBS (final concentration of 5 μM) was added to the wells. After incubating the plates for 30′ at room temperature, the test plates were measured using the Opera™ confocal microscope high content screening platform (Evotec Technologies). After every addition, mixing of the well content was achieved by placing the 384w plates on a 384w shaker (MixMate, Eppendorf) for 5 seconds at 2000 rpm.
Image acquisition was performed using a 40× water immersion objective and simultaneous excitation of FITC and Draq5 fluorescence with a 488 and a 635 laser. […] Output parameters of the script included among others “mean (number of spots per cell)” and “mean (integrated spot signal)”. […] Furthermore, potential false positive results due to fluorescence or false negative results due to quenching can be assessed by comparing the inhibition curves generated by the two above mentioned output parameters.
(In general: A flow cytometer gives signals particle by particle.)

Setting [3] is: small molecules, specificity experiments, flow cytometry, read-out: Native gp41 EC50.
The mark [4] stands for this setting: optimized protocol, […] C34-FITC, 75000 cells/well, compound added before sCD4, 3 independent experiments, read-out: EC50 flow cytometry.

Turning to `CC(C)(C)NC(=O)[C@@H]1C[C@@H]2CCCC[C@@H]2CN1C[C@@H](O)[C@H](Cc1ccccc1)NC(=O)[C@H](CC(N)=O)NC(=O)c1ccc2ccccc2n1` [SQV], the EC50 (as a rule, the concentration at which the effect is half-maximal) in data set [1] (setting [3]) is > 200 µM.
Turning to `COc1ccnc2[nH]cc(C(=O)C(=O)N3CCN(C(=O)c4ccccc4)C[C@H]3C)c12` [BMS-806], the EC50 in data set [1] (setting [4]) was 0.013 µM; in data set [1] (setting [3]), > 200 µM; in data set [2] (read-out: EC50 HCS, mean number of spots per cell, 0.5 nM C34-FITC, compound added before sCD4, 3 independent experiments), 0.0043 µM. Moreover, the “difference between addition of compound before, after or together with sCD4 induction” value in data set [1] (three orders of addition, FIG. 1) was “large increase of sensitivity when the compound was added before or together with sCD4”. Besides, the “activity in native gp41 assay (words, Table 4 results)” value in data set [2] is recorded as “active”.
For `O=C1Nc2ccc(Cl)cc2[C@@](C#CC2CC2)(C(F)(F)F)O1` [EFV], the EC50 in data set [1] (setting [4]) and in data set [1] (setting [3]) was > 200 µM each time. In addition, the “cytotoxicity in HCS native gp41 assay” value in data set [2] (Hut-IIIB cells, 200 μM) was “cytotoxicity”. The “activity in native gp41 assay (words, Table 4 results)” value in data set [2] is “no activity”.
`O=C(O)C1=CC(=C(c2ccc(O)c(C(=O)O)c2)c2ccc(O)c(C(=O)O)c2)C=CC1=O` [ATA]: in data set [1] (small molecules, specificity experiments), the “inhibition of C34-FITC binding” value was “about 40%”. For the same compound, the EC50 in data set [1] (setting [3]) is > 200 µM.
Consider `Cc1cn([C@H]2C[C@H](N=[N+]=[N-])[C@@H](CO)O2)c(=O)[nH]c1=O` [AZT], for which the EC50 in data set [1] (setting [3]) was > 200 µM.
With `O=C(NCc1ccc(F)cc1)c1nc(N2CCCCS2(=O)=O)c2cccnc2c1O` [L870,810], the EC50 in data set [1] (setting [3]) is > 200 µM.
